Measured values reported in PubChem BioAssay AID2060509 (Molecular Pharmacology Branch, DTP, NCI, 2025).

Test system: 485176-168-R4-J1-PDC spheroids with HUVEC/MSC, viability
Assay: Anticancer human tumor 485176-168-R4-J1-PDC patient-derived pancreatic adenocarcinoma cell line growth inhibition [GQUAD]
Conditions: for IC50: curve of first compound; for viability, T/C: stronger effect = lower value
How it was run: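 Multi-cell-type spheroids of tumor cells with HUVEC and mesenchymal stem cells, treated with drug combinations. Concentrations descend in half-log steps from near clinical Cmax, or from 10 microM where Cmax is unknown; viability read-out.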

[1] = second compound 0.0316 µM, first compound 0.0316 µM
[2] = second compound 0.0316 µM, first compound 0.1 µM
[3] = second compound 0.0316 µM, first compound 0.316 µM
[4] = second compound 0.0316 µM, first compound 1 µM
[5] = second compound 0.0316 µM, first compound 3.16 µM
[6] = second compound 0.0316 µM, first compound 10 µM
[7] = second compound 0.1 µM, first compound 0.0316 µM
[8] = second compound 0.1 µM, first compound 0.1 µM
[9] = second compound 0.1 µM, first compound 0.316 µM
[10] = second compound 0.1 µM, first compound 1 µM
[11] = second compound 0.1 µM, first compound 3.16 µM
[12] = second compound 0.1 µM, first compound 10 µM
[13] = second compound 0.316 µM, first compound 0.0316 µM
[14] = second compound 0.316 µM, first compound 0.1 µM
[15] = second compound 0.316 µM, first compound 0.316 µM
[16] = second compound 0.316 µM, first compound 1 µM
[17] = second compound 0.316 µM, first compound 3.16 µM
[18] = second compound 0.316 µM, first compound 10 µM
[19] = second compound 1 µM, first compound 0.0316 µM
[20] = second compound 1 µM, first compound 0.1 µM
[21] = second compound 1 µM, first compound 0.316 µM
[22] = second compound 1 µM, first compound 1 µM
[23] = second compound 1 µM, first compound 3.16 µM
[24] = second compound 1 µM, first compound 10 µM
[25] = second compound 3.16 µM, first compound 0.0316 µM
[26] = second compound 3.16 µM, first compound 0.1 µM
[27] = second compound 3.16 µM, first compound 0.316 µM
[28] = second compound 3.16 µM, first compound 1 µM
[29] = second compound 3.16 µM, first compound 3.16 µM
[30] = second compound 3.16 µM, first compound 10 µM
[31] = second compound 10 µM, first compound 0.0316 µM
[32] = second compound 10 µM, first compound 0.1 µM
[33] = second compound 10 µM, first compound 0.316 µM
[34] = second compound 10 µM, first compound 1 µM
[35] = second compound 10 µM, first compound 3.16 µM
[36] = second compound 10 µM, first compound 10 µM
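Further: spheroids exposed to compounds for seven days before readout.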
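Wherever viability, T/C is given: percent viability relative to DMSO vehicle control wells as 100%.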

**Q.** `CCCS(=O)(=O)Nc1ccc(F)c(C(=O)c2c[nH]c3ncc(-c4ccc(Cl)cc4)cc23)c1F` + Cc1cnc(CNC(=O)c2c(=O)c3ccc(N4CCCN(C)CC4)nc3n3c2sc2ccccc23)cn1 was tested. Which IC50 (second compound 0.0316 µM) did it give?
**A.** The IC50 was > 10 µM.

**Q.** And the IC50 (second compound 0.1 µM)?
**A.** Its IC50 is > 10 µM.

**Q.** And the IC50 (second compound 0.316 µM)?
**A.** The IC50 was > 10 µM.

**Q.** What about the IC50 (second compound 1 µM) of the same molecule?
**A.** The IC50 was < 0.0316 µM.

**Q.** And the IC50 (second compound 3.16 µM)?
**A.** The IC50 was < 0.0316 µM.

**Q.** What about the IC50 (second compound 10 µM) of the same molecule?
**A.** The IC50 was < 0.0316 µM.

**Q.** And the viability, T/C [1]?
**A.** The viability, T/C was 95.8%.

**Q.** What about the viability, T/C [2] of the same molecule?
**A.** Its viability, T/C is 77.4%.

**Q.** And the viability, T/C [3]?
**A.** Its viability, T/C is 82.9%.

**Q.** What about the viability, T/C [4] of the same molecule?
**A.** Its viability, T/C is 81.8%.

**Q.** What about the viability, T/C [5] of the same molecule?
**A.** Its viability, T/C is 92.8%.

**Q.** What about the viability, T/C [6] of the same molecule?
**A.** Its viability, T/C is 66%.

**Q.** What about the viability, T/C [7] of the same molecule?
**A.** The viability, T/C was 63.8%.

**Q.** What about the viability, T/C [8] of the same molecule?
**A.** Its viability, T/C is 68.2%.

**Q.** And the viability, T/C [9]?
**A.** Its viability, T/C is 60.2%.

**Q.** And the viability, T/C [10]?
**A.** Its viability, T/C is 80.3%.

**Q.** What about the viability, T/C [11] of the same molecule?
**A.** Its viability, T/C is 76.3%.

**Q.** What about the viability, T/C [12] of the same molecule?
**A.** Its viability, T/C is 49.7%.

**Q.** What about the viability, T/C [13] of the same molecule?
**A.** The viability, T/C was 55.9%.

**Q.** What about the viability, T/C [14] of the same molecule?
**A.** Its viability, T/C is 55.3%.

**Q.** What about the viability, T/C [15] of the same molecule?
**A.** The viability, T/C was 51.2%.

**Q.** What about the viability, T/C [16] of the same molecule?
**A.** The viability, T/C was 56.4%.

**Q.** What about the viability, T/C [17] of the same molecule?
**A.** Its viability, T/C is 57.8%.

**Q.** And the viability, T/C [18]?
**A.** Its viability, T/C is 49.9%.

**Q.** What about the viability, T/C [19] of the same molecule?
**A.** The viability, T/C was 45.4%.

**Q.** What about the viability, T/C [20] of the same molecule?
**A.** Its viability, T/C is 56.1%.

**Q.** What about the viability, T/C [21] of the same molecule?
**A.** Its viability, T/C is 47%.

**Q.** And the viability, T/C [22]?
**A.** Its viability, T/C is 41.4%.

**Q.** What about the viability, T/C [23] of the same molecule?
**A.** Its viability, T/C is 48.9%.

**Q.** And the viability, T/C [24]?
**A.** The viability, T/C was 35.4%.

**Q.** And the viability, T/C [25]?
**A.** The viability, T/C was 45.1%.

**Q.** And the viability, T/C [26]?
**A.** Its viability, T/C is 43.5%.

**Q.** What about the viability, T/C [27] of the same molecule?
**A.** Its viability, T/C is 43.6%.

**Q.** What about the viability, T/C [28] of the same molecule?
**A.** Its viability, T/C is 44.3%.

**Q.** What about the viability, T/C [29] of the same molecule?
**A.** The viability, T/C was 43.9%.

**Q.** What about the viability, T/C [30] of the same molecule?
**A.** The viability, T/C was 40.9%.

**Q.** What about the viability, T/C [31] of the same molecule?
**A.** The viability, T/C was 39.1%.

**Q.** What about the viability, T/C [32] of the same molecule?
**A.** Its viability, T/C is 36.3%.

**Q.** What about the viability, T/C [33] of the same molecule?
**A.** Its viability, T/C is 30.1%.

**Q.** What about the viability, T/C [34] of the same molecule?
**A.** The viability, T/C was 37.2%.

**Q.** And the viability, T/C [35]?
**A.** The viability, T/C was 39.6%.

**Q.** And the viability, T/C [36]?
**A.** Its viability, T/C is 35.4%.

**Q.** What does the source list for `C=CCn1c(=O)c2cnc(Nc3ccc(N4CCN(C)CC4)cc3)nc2n1-c1cccc(C(C)(C)O)n1` + Cc1[nH]c2ccc(F)cc2c1-c1nc2c3cccnc3c3ncccc3c2[nH]1?
**A.** IC50 (second compound 0.0316 µM): 0.401 µM; IC50 (second compound 0.1 µM): 0.386 µM; IC50 (second compound 0.316 µM): 0.469 µM; IC50 (second compound 1 µM): 0.468 µM; IC50 (second compound 3.16 µM): 0.36 µM; IC50 (second compound 10 µM): 0.309 µM; viability, T/C [1]: 103%; viability, T/C [2]: 96.9%; viability, T/C [3]: 55.1%; viability, T/C [4]: 22.6%; viability, T/C [5]: 7.84%; viability, T/C [6]: 3.33%; viability, T/C [7]: 105%; viability, T/C [8]: 82.8%; viability, T/C [9]: 60.2%; viability, T/C [10]: 20%; viability, T/C [11]: 7.9%; viability, T/C [12]: 4.23%; viability, T/C [13]: 98.2%; viability, T/C [14]: 81.1%; viability, T/C [15]: 65.8%; viability, T/C [16]: 25%; viability, T/C [17]: 6.26%; viability, T/C [18]: 4.73%; viability, T/C [19]: 115%; viability, T/C [20]: 94.4%; viability, T/C [21]: 66.7%; viability, T/C [22]: 22%; viability, T/C [23]: 7.76%; viability, T/C [24]: 4.28%; viability, T/C [25]: 114%; viability, T/C [26]: 75.1%; viability, T/C [27]: 63.7%; viability, T/C [28]: 23.2%; viability, T/C [29]: 6.68%; viability, T/C [30]: 4.03%; viability, T/C [31]: 101%; viability, T/C [32]: 82.4%; viability, T/C [33]: 50.1%; viability, T/C [34]: 18.9%; viability, T/C [35]: 5.54%; viability, T/C [36]: 3.76%
